Source: patent US8431593B2, “Heteroaryl amide derivatives” (H. Lundbeck A/S, priority 2006, dated 2013)

The compounds below were run against T1, P2X7 receptor (Homo sapiens, UniProt Q99572) (assay: P2X7 calcium mobilization assay, high throughput, antagonist activity (Example 4A)). Settings: 50% decrease in the fluorescence response of cells exposed to 80 μM 2′(3′)-O-(4-benzoyl-benzoyl)adenosine 5′-triphosphate; Example 4A; read-out: IC50.
T1 construct: host or cells: SH-SY5Y
T1 sequence (Q99572 1-595): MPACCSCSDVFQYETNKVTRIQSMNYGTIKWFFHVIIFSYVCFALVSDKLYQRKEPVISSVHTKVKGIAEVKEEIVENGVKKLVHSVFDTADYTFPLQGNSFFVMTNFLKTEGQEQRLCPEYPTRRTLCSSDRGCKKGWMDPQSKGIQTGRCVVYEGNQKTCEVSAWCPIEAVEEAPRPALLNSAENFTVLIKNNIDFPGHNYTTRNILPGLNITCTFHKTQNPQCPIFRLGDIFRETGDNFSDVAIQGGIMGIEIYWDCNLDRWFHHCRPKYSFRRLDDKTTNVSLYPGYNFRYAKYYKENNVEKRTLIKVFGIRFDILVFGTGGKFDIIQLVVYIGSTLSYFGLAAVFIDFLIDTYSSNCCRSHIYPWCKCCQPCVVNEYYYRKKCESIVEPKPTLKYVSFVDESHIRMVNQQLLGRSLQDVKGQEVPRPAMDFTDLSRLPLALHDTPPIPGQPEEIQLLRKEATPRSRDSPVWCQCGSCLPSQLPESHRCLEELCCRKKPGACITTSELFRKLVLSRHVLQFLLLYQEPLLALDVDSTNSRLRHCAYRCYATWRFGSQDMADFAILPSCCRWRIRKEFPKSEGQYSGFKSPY
Format: cell-based
Method in brief: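 Antagonism was measured as calcium fluorescence (FLIPR Tetra) in cells seeded one day earlier at 100,000/well, loaded with dye for 1 h and exposed to compound for 1 h at room temperature before agonist. Peak RFU, minus the no-agonist background, was referenced to the mean of the agonist wells.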

Row | IC50 | Structure (SMILES)
1 | < 2000 nM | CCN(Cc1cn2c(C(=O)NCC34CC5CC(CC(C5)C3)C4)cccc2n1)C(=O)c1ncc[nH]1 [Compound 551, N-(adamantan-1-ylmethyl)-2-{[ethyl(1H-imidazol-2-ylcarbonyl)amino]methyl}imidazo[1,2-a]pyridine-5-carboxamide]
2 | < 2000 nM | CC(C)(C)[C@@H](CO)NC(=O)c1cn2c(C(=O)NC[C@@H]3CC[C@H]4C[C@@H]3C4(C)C)cccc2n1 [Compound 522, 5-N-{[(1S,2R,5S)-6,6-dimethylbicyclo[3.1.1]hept-2-yl]methyl}-2-N-[(1S)-1-(hydroxymethyl)-2,2-dimethylpropyl] imidazo[1,2-a] pyridine-2,5-dicarboxamide]
3 | < 2000 nM | CC1(C)[C@H]2CC[C@@H](CNC(=O)c3cccc4nc(C(=O)N5CCCC5)cn34)[C@@H]1C2 [Compound 454, N-{[(1S,2R,5S)-6,6-dimethylbicyclo[3.1.1]hept-2-yl]methyl}-2-(pyrrolidin-1-ylcarbonyl) imidazo[1,2-a]pyridine-5-carboxamide]
4 | < 2000 nM | CC(C)[C@H]1CNCCN1C(=O)Cc1cn2c(C(=O)NC[C@@H]3CC[C@@H]4C[C@H]3C4(C)C)cccc2n1 [Compound 569, N-{[(1R,2R,5R)-6,6-dimethylbicyclo[3.1.1]hept-2-yl]methyl}-2-{2-[(2S)-2-isopropylpiperazin-1-yl]-2-oxoethyl}imidazo[1,2-a]pyridine-5-carboxamide]

Same assay, conditions: 50% decrease in the fluorescence response of cells exposed to 80 μM of 2′(3′)-O-(4-benzoyl-benzoyl)adenosine 5′-triphosphate; Example 4A; read-out: IC50

Row | Structure (SMILES) | IC50
5 | O=C(NCC12CC3CC(CC(C3)C1)C2)c1cccc2nc(C(CC(=O)N3CCOCC3)C(=O)O)cn12 (stereo not shown) [Compound 803, 2-{5-[(adamantan-1-ylmethyl)carbamoyl]imidazo[1,2-a]pyridin-2-yl}-4-morpholin-4-yl-4-oxobutanoic acid] | < 2000 nM
6 | CCN(C(=O)c1cn2c(C(=O)NCC34CC5CC(CC(C5)C3)C4)cccc2n1)C1CCN(C)CC1 [Compound 679, 5-N-(adamantan-1-ylmethyl)-2-N-ethyl-2-N-(1-methylpiperidin-4-yl)imidazo[1,2-a]pyridine-2,5-dicarboxamide] | < 2000 nM
7 | CN(CC1CCCCN1C)C(=O)c1cn2c(C(=O)NCC34CC5CC(CC(C5)C3)C4)cccc2n1 (stereo not shown) [Compound 707, 5-N-(adamantan-1-ylmethyl)-2-N-methyl-2-N-[(1-methylpiperidin-2-yl)methyl]imidazo[1,2-a]pyridine-2,5-dicarboxamide] | < 2000 nM

The next lines start with the values.

Row | IC50 | Structure (SMILES)
8 | < 2000 nM | CNC(=O)CC1(c2cn3c(C(=O)NCC45CC6CC(CC(C6)C4)C5)cccc3n2)CC(=O)N(C)C1=O (stereo not shown) [Compound 807, N-(adamantan-1-ylmethyl)-2-{1-methyl-3-[2-(methylamino)-2-oxoethyl]-2,5-dioxopyrrolidin-3-yl}imidazo[1,2-a] pyridine-5-carboxamide]
9 | < 2000 nM | N[C@H]1CCN(C(=O)c2cn3c(C(=O)NCC45CC6CC(CC(C6)C4)C5)cccc3n2)C1 [Compound 629, N-(adamantan-1-ylmethyl)-2-{[(3S)-3-aminopyrrolidin-1-yl]carbonyl}imidazo[1,2-a]pyridine-5-carboxamide]
10 | < 2000 nM | O=C(NCc1cccnc1)c1cn2c(C(=O)NCC34CC5CC(CC(C5)C3)C4)cccc2n1 [Compound 655, 5-N-(adamantan-1-ylmethyl)-2-N-(pyridin-3-ylmethyl) imidazo[1,2-a]pyridine-2,5-dicarboxamide]

Same assay, conditions: 50% decrease in the fluorescence response of cells exposed to 80 μM of 2′(3′)-O-(4-benzoyl-benzoyl)adenosine 5′-triphosphate; determined as in Example 4A; read-out: IC50

Row | IC50 | Structure (SMILES)
11 | < 2000 nM | CC(C)CC(CNC(=O)c1cccc2nc(Cn3nccc3N)cn12)c1ccc(Cl)cc1 (stereo not shown) [Compound 836, 2-[(5-amino-1H-pyrazol-1-yl)methyl]-N-[2-(4-chlorophenyl)-4-methylpentyl] imidazo [1,2-a]pyridine-5-carboxamide]
12 | < 2000 nM | CCOC(=O)C1(c2cn3c(C(=O)NCC45CC6CC(CC(C6)C4)C5)cccc3n2)CCOCC1 [Compound 944, ethyl 4-{5-[(adamantan-1-ylmethyl)carbamoyl]imidazo[1,2-a]pyridin-2-yl}tetrahydro-2H-pyran-4-carboxylate]
13 | < 2000 nM | CCOC(=O)C(Cc1cccc(Cl)c1)c1cn2c(C(=O)NCC34CC5CC(CC(C5)C3)C4)cccc2n1 (stereo not shown) [Compound 841, ethyl 2-{5-[(adamantan-1-ylmethyl)carbamoyl]imidazo[1,2-a]pyridin-2-yl}-3-(3-chlorophenyl) propanoate]
14 | < 2000 nM | CCOC(=O)C1(c2cn3c(C(=O)NCC45CC6CC(CC(C6)C4)C5)cccc3n2)CCCC1 [Compound 833, ethyl 1-{5-[(adamantan-1-ylmethyl)carbamoyl]imidazo[1,2-a]pyridin-2-yl} cyclopentane-carboxylate]

Same assay, conditions: SH-SY5Y cells; 50% decrease in fluorescence response to 80 μM BzATP; read-out: IC50

Row | Structure (SMILES) | IC50
15 | O=C(NCC12CC3CC(CC(C3)C1)C2)c1cccc2nc(CN3CC[C@@H](NCCO)C3)cn12 [Compound 198, N-(adamantan-1-ylmethyl)-2-({(3R)-3-[(2-hydroxy-ethyl)amino]pyrrolidin-1-yl}methyl)imidazo[1,2-a]pyridine-5-carboxamide] | < 2000 nM
16 | CC(C)C(=O)NC1CCN(C(=O)Cc2cn3c(C(=O)NCC45CC6CC(CC(C6)C4)C5)cccc3n2)CC1 [Compound 184, N-(adamantan-1-ylmethyl)-2-{2-[4-(isobutyrylamino)piperidin-1-yl]-2-oxoethyl}imidazo[1,2-a]pyridine-5-carboxamide] | < 2000 nM
17 | CC(=O)N1CCN(C(=O)Cc2cn3c(C(=O)NCC45CC6CC(CC(C6)C4)C5)cccc3n2)CC1 [Compound 166, 2-[2-(4-acetylpiperazin-1-yl)-2-oxoethyl]-N-(adamantan-1-ylmethyl)imidazo[1,2-a]pyridine-5-carboxamide] | < 2000 nM
18 | CN(CCCC(C)(C)O)C(=O)Cc1cn2c(C(=O)NCC34CC5CC(CC(C5)C3)C4)cccc2n1 [Compound 59, N-(adamantan-1-ylmethyl)-2-{2-[(4-hydroxy-4-methylpentyl)(meth-yl)amino]-2-oxoethyl}imidazo[1,2-a]pyridine-5-carboxamide] | < 2000 nM
19 | N[C@@H]1CCN(CCc2cn3c(C(=O)NCC45CC6CC(CC(C6)C4)C5)cccc3n2)C1 [Compound 115, 2-[2-((R)-3-amino-pyrrolidin-1-yl)-ethyl]-imidazo[1,2-a]pyridine-5-carboxylic acid (adamantan-1-ylmethyl)-amide] | < 2000 nM

The remaining lines, values ahead:

Row | IC50 | Structure (SMILES)
20 | < 2000 nM | CS(=O)(=O)NCCc1cn2c(C(=O)NCC34CC5CC(CC(C5)C3)C4)cccc2n1 [Compound 193, N-(adamantan-1-ylmethyl)-2-{2-[(methylsulfonyl)amino]eth-yl}imidazo[1,2-a]pyridine-5-carboxamide]
21 | < 2000 nM | CCN(C)C(=O)Cc1cn2c(C(=O)NCC34CC5CC(CC(C5)C3)C4)cccc2n1 [Compound 168, N-(adamantan-1-ylmethyl)-2-{2-[ethyl(methyl)amino]-2-oxoethyl}imidazo[1,2-a]pyridine-5-carboxamide]

Same assay, conditions: fluorescence response of cells exposed to 80 μM 2′(3′)-O-(4-benzoyl-benzoyl)adenosine 5′-triphosphate; Example 4A; read-out: IC50

Row | Structure (SMILES) | IC50
22 | COCC1CCCCN1C(=O)Cc1cn2c(C(=O)NCC(CC(C)C)c3ccccc3)cccc2n1 (stereo not shown) [Compound 241, 2-{2-[2-(methoxymethyl)piperidin-1-yl]-2-oxoethyl}-N-(4-methyl-2-phenylpentyl)imidazo [1,2-a]pyridine-5-carboxamide] | < 2000 nM
23 | CC1(C)[C@H]2CC[C@@H](CNC(=O)c3cccc4nc(C(=O)N5CCCC5CN)cn34)[C@@H]1C2 (stereo partly drawn) [Compound 324, 2-{[2-(aminomethyl)pyrrolidin-1-yl]carbonyl}-N-{[(1S,2R,5S)-6,6-dimethylbicyclo[3.1.1]hept-2-yl]methyl}imidazo[1,2-a]pyridine-5-carboxamide] | < 2000 nM

The next lines start with the values.

Row | IC50 | Structure (SMILES)
24 | < 2000 nM | N#CCCc1cn2c(C(=O)NCC34CC5CC(CC(C5)C3)C4)cccc2n1 [Compound 274, N-(adamantan-1-ylmethyl)-2-(2-cyanoethyl)imidazo[1,2-a]pyridine-5-carboxamide]
25 | < 2000 nM | O=C(O)CCS(=O)(=O)Cc1cn2c(C(=O)NCC34CC5CC(CC(C5)C3)C4)cccc2n1 [Compound 346, 3-[({5-[(adamantan-1-ylmethyl)carbamoyl]imidazo[1,2-a]pyridin-2-yl}methyl)sulfonyl] propanoic acid]
26 | < 2000 nM | Cc1cc(-c2cn3c(C(=O)NCC45CC6CC(CC(C6)C4)C5)cccc3n2)n(CCO)n1 [Compound 339, N-(adamantan-1-ylmethyl)-2-[1-(2-hydroxyethyl)-3-methyl-1H-pyrazol-5-yl]imidazo[1,2-a]pyridine-5-carboxamide]
27 | < 2000 nM | N#Cc1ccc(-c2cn3c(C(=O)NCC45CC6CC(CC(C6)C4)C5)cccc3n2)cc1 [Compound 298, N-(adamantan-1-ylmethyl)-2-(4-cyanophenyl)imidazo [1,2-a]pyridine-5-carboxamide]
28 | < 2000 nM | Cc1c(C(=O)O)ncn1Cc1cn2c(C(=O)NCC34CC5CC(CC(C5)C3)C4)cccc2n1 [Compound 279, 1-({5-[(adamantan-1-ylmethyl)carbamoyl]imidazo[1,2-a]pyridin-2-yl}methyl)-5-methyl-1H-imidazole-4-carboxylic acid]
